Reference: PMC7070694, “Identification of New Peptides from Fermented Milk Showing Antioxidant Properties: Mechanism of Action” (Antioxidants, 2020)
Peptide text beside a SMILES is read from it.

Legend:
[1] = system: Caco-2 cell monolayer; test: Transepithelial transport through Caco-2 cell monolayers (Transwell); type: in vitro ADME; conditions: Caco-2 monolayer on Transwell, 21 days, TEER > 1100 Ω × cm^2, 75 µg peptide in 0.75 mL HBSS apical, 37 °C, RP-HPLC UV 220 nm, mean ± SD, n. d. = not detected with RP-HPLC
Protocol: Caco-2 cells were obtained from DISCOG (University of Padova, Padova, Italy). The cells cultured in DMEM (high glucose) supplemented with 10% FBS, were used between 35 and 60 passages. In order to perform transepithelial transport, 8 × 10^4 cells were seeded on Transwell^© cell culture inserts (0.4 µm pore sizes, 12 mm diameter, 1.12 cm^2 grown surface; Corning Life Sciences, Tewksbury, MA, USA). Cells were grown, differentiated for 21 days and the monolayer integrity was estimated by transepithelial electrical resistance (TEER) (Millicell® ERS-2 volt-ohmmeter, EDM Millipore, Darmstadt, Germany) showing values higher than 1100 Ω × cm^2.
The intestinal barrier crossing capacity of the fractions or synthetic peptides through Caco-2 cells monolayer was evaluated using Transwell® insert model according to Tonolo et al.. Briefly, after 21 days of culturing, Caco-2 cells differentiated forming a monolayer that delimited an upper part (apical compartment) and lower part (basolateral compartment). The monolayer was rinsed three times with Hank’s balanced salt solution (HBSS) and 10 mM D-glucose and equilibrated for 30 min at 37 °C. After, cells were incubated in the presence of 0.75 mL HBSS containing 150 µg fraction or 75 µg peptide in the apical chamber at 37 °C for 120 min. Samples collected from both compartments (apical and basolateral) at different times were centrifuged at 11,600× g, filtered with 0.45 µm filter, frozen and lyophilized. Subsequently, the obtained samples were dissolved in 100 µL of 0.1% TFA aqueous solution and evaluated by RP-HPLC and Matrix assisted laser desorption/ionization- time of flight/time of flight mass spectrometry (MALDI-TOF/TOF MS).
The apical and basolateral compartments were evaluated in RP-HPLC using a column Onyx Monolithic C18 100 mm × 4.6 mm, LC column (Phenomenex, Torrance, CA, USA) with a Waters 2695 Separation Module (Milfold, MA, USA) with a Waters 996 Photodiode Array Detector. Separations were performed with a linear gradient from 0–60% ACN in the presence of 0.1% TFA over 20 min at a constant flow rate of 2 mL/min monitoring the peaks by UV detection (λ = 220 nm).
Subsequently, the obtained fractions were analysed with a MALDI-TOF/TOF 4800 mass spectrometer (AB Sciex, Framingham, MA, USA). After an initial full MS scan, enlargements on the MS signals of interest were acquired. For the basolateral fractions, the samples, after lyophilisation, were dissolved in 50 µL of 25% ACN and 0.1% TFA. The analysis was then performed on 2 µL of these solutions mixed with 2 µL of peptide MALDI matrix α-cyano-4-hydroxycynnamic acid (10 mg/mL aqueous 70% acetonitrile/0.1% TFA). The following analytical conditions were set for MALDI-TOF spectra acquisition: positive ion reflector mode, initial mass range 500–3500 Da (the mass range was then adapted for each enlargement), variable laser intensity (3000–3800), shots/sub-spectrum 50, total shots/spectrum 1500 and accelerating voltage of 20 kV. Final data analysis and fragments identification were done on Data Explorer software (AB Sciex, Framingham, MA, USA), utilizing external mass calibration performed with mass peptide standards (Sigma-Aldrich, St Louis, MO, USA).
In order to evaluate the intestinal crossing capacity of the four peptides, Transwell® insert model peptide absorption, was performed. […] After 10 min and 120 min, apical and basolateral compartments were collected and analyzed by RP-HPLC and mass spectrometry.

[2] = MTT cell viability (cytotoxicity); type: cell-based; conditions: human, Caco-2 cells (1 × 10^4), synthetic peptides 0.05 mg/mL, no TbOOH, mean ± SD of at least three experiments, read-out: Percentage of Cell Viability, None (c)

Structure (SMILES): CC[C@H](C)[C@H](NC(=O)[C@@H]1CCCN1C(=O)CNC(=O)[C@@H](N)CCC(N)=O)C(=O)N[C@H](C(=O)N[C@@H](CC(C)C)C(=O)N[C@@H](CC(N)=O)C(=O)N1CCC[C@H]1C(=O)N[C@@H](Cc1c[nH]c2ccccc12)C(=O)N[C@@H](CC(=O)O)C(=O)N[C@@H](CCC(N)=O)C(=O)N[C@H](C(=O)N[C@@H](CCCCN)C(=O)N[C@@H](CCCNC(=N)N)C(=O)O)C(C)C)C(C)C [Q-14-R] (H-QGPIVLNPWDQVKR-OH)
- RP-HPLC Estimation AP (%) ([1]; 120 min after 30 min equilibration, apical compartment, % of total peptide added): 87.59 ± 12.18%
- RP-HPLC Estimation BL (%) ([1]; A-B, 120 min, basolateral compartment, % of initial peptide added apically): 0.02 ± 0.01%
- viability at 24 h, 50 µg/mL [2]: 115 ± 15.6%
